Measured values from article PMC8781304, “Arene-Ruthenium(II) Complexes with Carbothiamidopyrazoles as a Potential Alternative for Antibiotic Resistance in Human” (Molecules, 2022).
In brackets after ≈: the same amount, converted by molar mass. Like-named read-outs stand apart in the source and are kept apart here.

Tests used:
S. aureus ATCC 29213 [1] = assay: Synergy with oxacillin and vancomycin, partial checkerboard broth microdilution; format: cell-based, Staphylococcus aureus; details: for MIC: Staphylococcus aureus; for FIC (Oxa) / FIC (Van): MIC antibiotic in combination/MIC antibiotic alone; for MIC Oxa in Combination: oxacillin with the complex at ½ MIC (NH4PF6 250 µg/mL); for MIC Van in Combination: vancomycin with the complex at ½ MIC (NH4PF6 250 µg/mL)
[2] = test system: S. epidermidis ATCC 12228; assay: as above; format: cell-based, Staphylococcus epidermidis; details: for MIC: Staphylococcus epidermidis; for FIC (Oxa) / FIC (Van): MIC antibiotic in combination/MIC antibiotic alone; for MIC Oxa in Combination: oxacillin with the complex at ½ MIC (NH4PF6 250 µg/mL); for MIC Van in Combination: vancomycin with the complex at ½ MIC (NH4PF6 250 µg/mL)
[3] = test system: Candida albicans ATCC 10231; assay: MIC and MBC/MFC by broth microdilution; format: cell-based; details: C. albicans ATCC 10231
Description: (§1) Reference strains of bacteria and fungi: Staphylococcus aureus ATCC 29213, Staphylococcus epidermidis ATCC 12228, Enterococcus faecalis ATCC 29212, Pseudomonas aeruginosa ATCC 25619, Proteus vulgaris ATCC 8427, and Candida albicans ATCC 10231 (Manassas, VA, USA) were used to screen the antimicrobial activity of the arene-ruthenium(II) complexes 3a-3d, NH4PF6 and selected antibiotics. The microorganisms were grown for 24 h (bacteria) or 48 h (fungi) in 35-37 °C in tryptic-soy agar (TSA; BTL Sp. z o.o., Łódź, Poland) or Sabouraud's dextrose agar (SDA; BTL Sp. z o.o., Łódź, Poland) according to nutritional requirements. Microbial suspensions at a density of about 5 × 10^5 CFU/mL were prepared in Mueller-Hinton broth (MHB; BTL Sp. z o.o., Łódź, Poland) or RPMI-1640 medium (Sigma, St. Louis, MO, USA) for bacteria and fungi, respectively. […] Louis, MO, USA). Stock solutions of the lyophilized compounds were freshly prepared in 100% DMSO (POCh, Gliwice, Poland) for the complexes, or in water for injection (Sigma, St. Louis, MO, USA) in the case of antibiotics. […] MIC and MBC/MFC were defined as the lowest concentrations of the compounds inhibiting bacterial/fungal growth or able to kill added microbial inoculum, respectively, and were evaluated as described by […] et al.. Experiments were carried out in duplicate.

[4] = test system: S. epidermidis ATCC 12228; assay: Time-kill test; format: cell-based, Staphylococcus epidermidis; details: 1 × MIC
Description: (§2) The time-kill experiments were performed as described previously. Briefly, inocula were prepared in TSB medium (TSB; […] BTL Sp. z o.o., Łódź, Poland). All samples were incubated at 35 °C and 80 rpm for varied time intervals (2, 4, 6, 12, 18, 24, 48h). The percentage of dead cells was calculated according to the growth control by determining the number of living cells (CFU/mL) of each tube using the agar plate count method. Samples were immediately serially diluted ten-fold in 0.01 M phosphate buffered saline (PBS, Bimed Lublin S.A., Lublin, Poland) at pH 7.0 and 10 μL aliquots were spot-inoculated in duplicate onto MHA plates. Agar plates were incubated at 37 °C overnight before determining the viable count. Two independent experiments were carried out.

[5] = test system: S. epidermidis ATCC 12228; assay: Cell lysis (bacteriolysis, OD600); format: cell-based, Staphylococcus epidermidis; details: 1 × MBC
[6] = test system: Staphylococcus aureus ATCC 29213; assay: Fluorescence microscopy, Hoechst 33258 / propidium iodide viability; format: cell-based; details: S. aureus ATCC 29213; MIC concentration, 24 h
Description: (§3) Staphylococcus aureus ATCC 29213 and Staphylococcus epidermidis ATCC 12228 strains were treated with tested compounds 2a–2d and 3a–3d at a concentration 1 × MIC for 24h, while untreated cells were used as a growth control. After incubation, the cells were harvested and a suspension of 1 × 10^5 cells/mL in PBS was prepared. Following this, 1 µl of the fluorescent dyes Hoechst 33258 and propidium iodide (15 µg/mL each) (Sigma, St. Louis, MO, USA) were added. The obtained mixture was incubated in the dark at room temperature for 15–20 min. After incubation, the cell suspensions, placed on glass slides, were analyzed under an Olympus IX 70 fluorescence microscope (Shinjuku, Tokyo, Japan), using a 360–370 nm UV filter. Photos were taken at 10 × 20 magnification.

[7] = test system: Staphylococcus epidermidis ATCC 12228; assay: as above; format: cell-based; details: S. epidermidis ATCC 12228; MIC concentration, 24 h
Description: as §3

S. aureus ATCC 29213 [8] = assay: Time-kill test; format: cell-based, Staphylococcus aureus; details: 1 × MIC
Description: as §2

[9] = test system: Staphylococcus aureus ATCC 29213; assay: MIC and MBC/MFC by broth microdilution; format: cell-based; details: S. aureus ATCC 29213
Description: as §1

[10] = test system: Staphylococcus epidermidis ATCC 12228; assay: MIC and MBC/MFC by broth microdilution; format: cell-based; details: S. epidermidis ATCC 12228
Description: as §1

[11] = test system: Pseudomonas aeruginosa ATCC 25619; assay: MIC and MBC/MFC by broth microdilution; format: cell-based; details: P. aeruginosa ATCC 25619
Description: as §1

[12] = test system: Proteus vulgaris ATCC 8427; assay: MIC and MBC/MFC by broth microdilution; format: cell-based; details: P. vulgaris ATCC 8427
Description: as §1

[13] = test system: Enterococcus faecalis ATCC 29212; assay: MIC and MBC/MFC by broth microdilution; format: cell-based; details: E. faecalis ATCC 29212
Description: as §1

[14] = test system: human foreskin fibroblast HFF-1 (ATCC-SCRC-1041); assay: Cytotoxicity, MTT reduction assay; format: cell-based
Description: The cytotoxicity of arene-ruthenium(II) complexes 3a–3d was determined using the MTT (3-(4,5-dimethylthiazol-2-yl)-2,5-diphenyltetrazolium bromide; Sigma, St. Louis, MO, USA) reduction assay and a human foreskin fibroblast HFF-1 culture (ATCC-SCRC-1041) (LGC Standards Sp. z o.o., Poland) at a final concentration range of 3.9–500 µM. The HFF-1 cells were cultured in Dulbecco’s Modified Eagle’s Medium (DMEM; Sigma, St. Louis, MO, USA) with 15% fetal bovine serum (FBS; BioWest, Nuaillé, France) and penicillin/streptomycin (100 × stock solution; BioWest, Nuaillé, France), 1 × 10^6 cell/mL (100 µL/well) in 96-well tissue culture plates (Nunc, Roskilde, Denmark) for 24 h at 37 °C/5% CO2. The cells were then exposed to arene-ruthenium(II) complexes for 24 h at 37 °C. The control (untreated) cells were exposed to culture medium alone or culture medium containing 2% DMSO to exclude the effect of the solvent used to prepare the stock solutions of the tested complexes. Next, fresh culture medium (100 µL/well) and MTT (1.5 mg/mL, 50 µL/well) were added, and cells were incubated for two hours under the above conditions. MTT was […] blue formazan crystals produced by the metabolically active cells. Finally, the MTT solution was removed and replaced with 100 µL/well of 20% sodium dodecyl sulfate (SDS; Sigma, St. Louis, MO, USA) for 24 h (room temperature) to dissolve the blue formazan. Based on the absorbance (λ = 550 nm) of tested and control cells (100% viability), the percentage of cell viability after exposure was calculated. For each sample, the experiment was performed twice.

| Compound | FIC (Oxa) (S. aureus ATCC 29213 [1]; S. aureus ATCC 29213) | FIC (Van) (S. aureus ATCC 29213 [1]; S. aureus ATCC 29213) | MIC Oxa in Combination (S. aureus ATCC 29213 [1]; S. aureus ATCC 29213) [µg/mL] | MIC Van in Combination (S. aureus ATCC 29213 [1]; S. aureus ATCC 29213) [µg/mL] | FIC (Oxa) ([2]; S. epidermidis ATCC 12228) | FIC (Van) ([2]; S. epidermidis ATCC 12228) | MIC Oxa in Combination ([2]; S. epidermidis ATCC 12228) [µg/mL] | MIC Van in Combination ([2]; S. epidermidis ATCC 12228) [µg/mL] | MBC/MFC [3] [µg/mL] | MIC [3] [µg/mL] | MBC/MFC [9] [µg/mL] | MBC/MFC [10] [µg/mL] | MBC/MFC [11] [µg/mL] | MBC/MFC [12] [µg/mL] | MBC/MFC [13] [µg/mL] | MIC [13] [µg/mL] | also measured |
| --- | --- | --- | --- | --- | --- | --- | --- | --- | --- | --- | --- | --- | --- | --- | --- | --- | --- |
| CN[C@H](CC(C)C)C(=O)N[C@H]1C(=O)N[C@@H](CC(N)=O)C(=O)N[C@H]2C(=O)N[C@H]3C(=O)N[C@H](C(=O)N[C@H](C(=O)O)c4cc(O)cc(O)c4-c4cc3ccc4O)[C@H](O)c3ccc(c(Cl)c3)Oc3cc2cc(c3O[C@@H]2O[C@H](CO)[C@@H](O)[C@H](O)[C@H]2O[C@H]2C[C@](C)(N)[C@H](O)[C@H](C)O2)Oc2ccc(cc2Cl)[C@H]1O [Van, vancomycin, reference compound] | – | – | – | – | – | – | – | – | – | – | – | – | – | – | – | – | MIC (S. aureus ATCC 29213 [1]; ATCC29213, read-out: MIC Van Alone): 0.5 µg/mL; MIC ([2]; ATCC12228, read-out: MIC Van Alone): 0.5 µg/mL |
| Cc1ccc(C(C)C)cc1.Cc1ccc(C(C)C)cc1.[Cl][Ru][Cl].[Cl][Ru][Cl] [Dimer, dichloro(p-cymene)ruthenium(II) dimer] | 1 | 1 | 0.250 | 0.50 | 1 | 2 | 0.25 | 1 | – | – | – | – | – | – | – | – | Correlation with Oxa and Van (synergy), in words (S. aureus ATCC 29213 [1]; S. aureus ATCC 29213): did not show any synergistic effect; Correlation with Oxa and Van (synergy), in words ([2]; S. epidermidis ATCC 12228): did not show any synergistic effect |
| OC(Cn1cncn1)(Cn1cncn1)c1ccc(F)cc1F [Flu, fluconazole, reference compound] | – | – | – | – | – | – | – | – | >16 | >16 | – | – | – | – | – | – | MIC ([3]; Candida albicans, ATCC10231, read-out: MIC): > 16 µg/mL |
| Cc1cc(C)n(C(N)=S)n1.Cc1ccc(C(C)C)cc1.[Cl-].[Cl][Ru+] [Compound 2a] | 1 | 1 | 0.250 | 0.50 | 0.06 | 0.03 | 0.015 | 0.015 | – | – | – | – | – | – | – | – | Time-kill: bacteriostatic or bactericidal [4]: bacteriostatic; Cell lysis, change of OD600 [5]: not found to change OD600 values; Change in bacterial viability (Hoechst 33258 / PI fluorescence) [6]: Less changes in cell survival; Change in bacterial viability (Hoechst 33258 / PI fluorescence) [7]: Less changes in cell survival; Time-kill: bacteriostatic or bactericidal (S. aureus ATCC 29213 [8]): bacteriostatic |
| Cc1onc(-c2ccccc2)c1C(=O)N[C@@H]1C(=O)N2[C@@H]1SC(C)(C)[C@@H]2C(=O)O [Oxa, oxacillin, reference compound] | – | – | – | – | – | – | – | – | – | – | 0.5 (≈ 1.25 µM) | 0.5 (≈ 1.25 µM) | – | – | – | – | MIC ([9]; Staphylococcus aureus, ATCC29213, read-out: MIC): 0.25 µg/mL (≈ 0.623 µM); MIC ([10]; Staphylococcus epidermidis, ATCC12228, read-out: MIC): 0.25 µg/mL (≈ 0.623 µM); MIC (S. aureus ATCC 29213 [1]; ATCC29213, S. aureus ATCC 29213, oxacillin without complex, read-out: MIC Oxa Alone): 0.25 µg/mL; MIC ([2]; ATCC12228, S. epidermidis ATCC 12228, oxacillin without complex, read-out: MIC Oxa Alone): 0.25 µg/mL |
| F[P-](F)(F)(F)(F)F.[NH4+] [NH4PF6, Ammonium hexafluorophosphate] | 1 | 1 | 0.250 | 0.50 | 1 | 2 | 0.25 | 1 | >1000 | >1000 | >1000 | >1000 | >1000 | >1000 | >1000 | >1000 | MIC [11]: >1000 µg/mL; MIC [12]: >1000 µg/mL; MIC [9]: >1000 µg/mL; MIC [10]: >1000 µg/mL; Correlation with Oxa and Van (synergy), in words (S. aureus ATCC 29213 [1]; S. aureus ATCC 29213): did not show any synergistic effect; Correlation with Oxa and Van (synergy), in words ([2]; S. epidermidis ATCC 12228): did not show any synergistic effect |
| CNC(C)C1CCC(N)C(OC2C(N)CC(N)C(OC3OCC(C)(O)C(NC)C3O)C2O)O1 (stereo not drawn) [Gen, gentamicin, reference compound] | – | – | – | – | – | – | – | – | – | – | – | – | 16 (≈ 33.5 µM) | 1 (≈ 2.09 µM) | <2 | <2 | MIC ([11]; Pseudomonas aeruginosa, ATCC25619, read-out: MIC): 8 µg/mL (≈ 16.8 µM); MIC ([12]; Proteus vulgaris, ATCC8427, read-out: MIC): 1 µg/mL (≈ 2.09 µM); MIC ([13]; Enterococcus faecalis, ATCC29212, read-out: MIC): < 2 µg/mL |
| [(η ^6 -p-cymene)Ru(1-[amino(thioxo)methyl]-5-hydroxy-3-methyl-1H-pyrazole)[PF6] [Compound 3d] | 1 | 2 | 0.250 | 1 | 0.25 | 0.06 | 0.06 | 0.03 | >1000 | >1000 | 500 | 250 | 1000 | >1000 | 500 | 500 | IC50 ([14]; HFF-1, MTT, 24 h, tested 3.9–500 μM): 892 µM; HFF-1 viability (lowest) ([14]; range 3.9–500 μM): ≥ 75%; MIC [11]: 1000 µg/mL; MIC [12]: >1000 µg/mL; MIC [9]: 125 µg/mL; MIC [10]: 125 µg/mL; Change in bacterial viability (Hoechst 33258 / PI fluorescence) [6]: no significant changes in the viability; Change in bacterial viability (Hoechst 33258 / PI fluorescence) [7]: no significant changes in the viability |
